Reference: patent publication US8975275B2, “Use of chemotherapeutic agents” (priority 1999, dated 2015)
Counter-ions that a name gives are not always drawn.

How the values were obtained:
[1] = system: Staphylococcus aureus strains; settings: microorganisms isolated from the root canals after topical antibiotic treatment; cited from earlier work
Staphylococcus epidermis = settings: microorganisms isolated from the root canals after topical antibiotic treatment; cited from earlier work
[2] = system: infected root canal and periapical region; test: Topical treatment of the infected root canal and the periapical region (patient cases); type: in vivo, human
Experimental: In the clinical use of the compounds of formula (I) or formula (II), the pulp residues are removed first. The preparation of the canals is carried out with minimum discomfort for the patient. The canals are then flushed with hydrogen peroxide, Other methods of disinfection can be omitted. The compounds of formula (I) or formula (II), in a liquid form of administration, are then introduced into the toot canal under pressure using a cannula. The compounds of formula (I) or (II) are then injected in dissolved form or in a gelatinous form of administration. The root canal is subsequently occluded in the crown region, first with a cotton wool plug and then with zinc phosphate cement to seal the margins. If the canals are not gangrenous, the antibiotics remain in the canals for 3 days. […] The compounds of formula (I) or formula (II) can be used in concentrations of 0.005 mg/ml to 200 mg/ml.
In this application technique, which is known from intraligamental anaesthesia, the tooth is completely flooded with the antibacterial solution of the compounds of formula (I) or formula (II) in the entire root region.

osseomucosal wounds = test: Topical treatment of osseomucosal wounds (patient cases); type: in vivo, human
Excerpt: Application is effected by flushing and/or by means of strip inserts impregnated with compounds of formula (I) or formula (II). They are to be used for example for postoperative infections following dentosurgical interventions (extractions). For this purpose the gel containing the compound of formula (I) or formula (II) is syringed directly into the extraction wound or onto a collagen sponge which remains in the extraction wound. The wound is closed for about half an hour by biting on a tampon. Prophylactic applications have been particularly successful after the extraction of teeth with focal infections, Liquid forms of administration suitable for flushing fistulae are those containing the compounds of formula (I) or formula (II) in concentrations of 0.005 mg/ml to 250 mg/ml. Preferred concentrations are those ranging from 0.5 to 100 mg/ml, Forms suitable for coating strips are gels containing the compounds of formula (I) or formula (II), as well as aqueous solutions or suspensions. These applications can contain the compounds of formula (I) or formula (II) in concentrations of 0.005 mg/ml to 200 mg/ml. Preferred concentrations for solutions are those ranging from 0.1 to 50 mg/ml Gelatinous forms of administration in concentrations of 25-150 mg/ml are preferred in the case of strip inserts.

periodontal diseases = test: Topical treatment of periodontal diseases (patient cases); type: in vivo, human
Excerpt: To do this, threads or so-called chips impregnated with solutions or gelatinous preparations of the compounds of formula (I) or formula (II) are inserted in the gingival pocket. A possible alternative is to use medicament carriers in the form of trays covering the teeth and gingiva. Before they are applied, the gelatinous applications of the compounds of formula (I) or formula (II) are instilled into the gingival pockets. In addition, the gel containing the compounds of formula (I) or formula (II) can also be placed in the medicament carrier. This use of medicament carriers is advantageous because the treatment time can be reduced by the rapid onset of action to about 15 to 30 minutes, so the treatment can be carried out directly in the surgery. The compounds of formula (I) or formula (II) can be used in concentrations of 0.005 mg/ml to 200 mg/ml. Preferred concentrations are those ranging from 0.5 mg/ml to 200 mg/ml and particularly preferred concentrations are those ranging from 10 to 150 mg/ml. Periodontal diseases can also be treated by administering the compounds of formula (I) or formula (II) by intraligamental injection, it being possible to use concentrations ranging from 0.005 mg/ml to 200 mg/ml, preferably from 0.5 mg/ml to 200 mg/ml. For the antibiotics commonly used nowadays, such as tetracyclines, an intraligamental injection is not reasonable since these compounds with a predominantly bacteriostatic action are quickly washed out due to the rapid fluid exchange in the periodontal interstice, and cannot develop their action. Tetra-cyclines can therefore only develop their effects via depot formulations. By contrast, the compounds of formula (I) or formula (II) have a very rapid and also bactericidal action, so their residence time in the periodontal interstice is sufficient to destroy the microbes.

[3] = system: pulpitis due to carious diseases; test: Topical treatment of pulpitis due to carious diseases (patient cases); type: in vivo, human
Excerpt: This is of great importance because, for example in the case of caries profunda, it is always necessary to decide whether softened residual dentin can be left over the pulp. By virtue of complete elimination of the microbes present, there is now a novel method of treatment wherein a thin softened dentin covering can be left if the compounds of formula (I) or formula (II) are used. This method of treatment makes it possible to free infected dentin layers of microbes and to stop pulp infections. This means that pain reactions are eliminated and pulp infections are to a certain extent cured. The pulp remains vital. The topical application of the compounds of formula (I) or formula (II) followed the removal of the carious dentin. The compounds of formula (I) or formula (II) were applied for example in aqueous solution, in a form of gelatinous consistency or on an inert carrier, for example by means of a cotton wool plug. The overlying cavity was occluded with a cement to seal the margins. The cotton wool plug was left in the cavity for three to six days. The compounds of formula (I) or formula (II) can be used in concentrations of 0.005 mg/ml to 200 mg/ml, Preferred concentrations are those ranging from 0.5 mg/ml to 150 mg/ml and particularly preferred concentrations are those ranging from 10 to 100 mg/ml.

bacteraemia = settings: systemic administration ten minutes prior to a dental extraction; cited from earlier work

CC[C@H]1OC(=O)[C@H](C)[C@@H](O[C@H]2C[C@@](C)(OC)[C@@H](O)[C@H](C)O2)[C@H](C)[C@@H](O[C@@H]2O[C@H](C)C[C@H](N(C)C)[C@H]2O)[C@](C)(O)C[C@@H](C)C(=O)[C@H](C)[C@@H](O)[C@]1(C)O [erythromycin]
resistance of strains [1]: majority of Staphylococcus aureus strains were resistant
increase of resistance after the treatment (Staphylococcus epidermis): three-fold

Cc1c(F)c(N2CCNC(C)C2)cc2c1c(=O)c(C(=O)O)cn2C1CC1 (stereo not drawn) [grepafloxacin, 1-cyclopropyl-6-fluoro-1,4-dihydro-5-methyl-7-(3-methyl-1-piperazinyl)-4-oxo-3-quinolinecarboxylic acid]
clinical finding at check-up ([2]; Patient A 3.16, after root filling, check-up after 1 week): patient still symptom-free
clinical finding at check-up ([2]; Patient A 3.16, tooth 46 apical periodontitis, not gangrenous, root canal insert gel 50 mg/ml, check-up after 3 weeks): patient symptom-free
clinical finding at check-up ([2]; Patient A 3.17, after root filling, check-up after 4 days): patient symptom-free
clinical finding at check-up ([2]; Patient A 3.17, tooth 32 apical periodontitis due to gangrene, solution 20 mg/ml + gel 20 mg/ml + intraligamental injection 50 mg/ml, check-up after 6 days): no gangrenous odour, no bite discomfort
clinical finding at check-up ([2]; Patient A 3.23, tooth 34 fistulation, gangrenous, solution 50 mg/ml by paper point + intraligamental injection 50 mg/ml, check-up after 10 days): patient symptom-free
clinical finding at check-up (osseomucosal wounds; Patient C 8, apical granulomas, extraction (osteotomy), gauze with gel 50 mg/ml, check-up after 3 days): patient is symptom-free
clinical finding at check-up (osseomucosal wounds; Patient C 9, same combined treatment, after root canal filling, check-up after 2 weeks): patient symptom-free
clinical finding at check-up (osseomucosal wounds; Patient C 9, tooth 14 pulpitis purulenta, fistulation, moxifloxacin hydrochloride solution 25 mg/ml flushing + grepafloxacin gel 25 mg/ml canal insert + moxifloxacin hydrochloride gel 25 mg/ml gauze insert, check-up after 6 days): patient symptom-free
clinical finding at check-up (periodontal diseases; Patient B 7, teeth 14-17 marginal periodontitis, thread insert gel 50 mg/ml + intraligamental injection 50 mg/ml, check-up after 9 days): patient symptom-free, gingival regions and pockets inflammation-free
clinical finding at check-up ([3]; Patient A 1.11, gel 25 mg/ml, after final filling, check-up after 4 weeks): tooth vital, patient symptom-free
clinical finding at check-up ([3]; Patient A 1.11, tooth 22, pellet insert gel 25 mg/ml, check-up after 5 days): patient was symptom-free
clinical finding at check-up ([3]; Patient A 1.12, gel 50 mg/ml, after final filling, check-up after 14 days): teeth vital, patient symptom-free
clinical finding at check-up ([3]; Patient A 1.12, teeth 22, 23, pellet inserts gel 50 mg/ml, check-up after 1 week): teeth symptom-free

N[C@@H]1[C@H]2CN(c3nc4c(cc3F)c(=O)c(C(=O)O)cn4-c3ccc(F)cc3F)C[C@@H]12 [trovafloxacin mesylate, 7-(1α,5α,6α-6-amino-3-azabicyclo[3.1.0]hex-3-yl)-1-(2,4-difluorophenyl)-6-fluoro-1,4-dihydro-4-oxo-1,8-naphthyridine-3-carboxylic acid]
clinical finding at check-up ([2]; Patient A 3.18, tooth 34 apical periodontitis due to gangrene, gel 100 mg/ml + intraligamental injection 50 mg/ml, check-up after 12 days): patient symptom-free
clinical finding at check-up ([2]; Patient A 3.19, tooth 11 apical periodontitis due to gangrene simplex, root canal insert solution 50 mg/ml, check-up after 3 weeks): patient symptom-free, canal odour-free
clinical finding at check-up (periodontal diseases; Patient B 8, marginal periodontitis entire upper and lower jaw, medicinal splint gel 0.25 mg/ml 10 minutes/day for 6 days, check-up after 6 days): patient symptom-free, inflammation phenomena no longer present
clinical finding at check-up ([3]; Patient A 1.15, tooth 44, night pain, pellet insert gel 50 mg/ml, check-up after 9 days): patient symptom-free, tooth vital

COc1cccc(OC)c1C(=O)N[C@@H]1C(=O)N2[C@@H]1SC(C)(C)[C@@H]2C(=O)O [methicillin]
increase of resistance after the treatment (Staphylococcus epidermis): two-fold

penicillin
resistance of strains [1]: majority of Staphylococcus aureus strains were resistant

CO/N=C(\C(=O)N[C@@H]1C(=O)N2C(C(=O)O)=C(COC(N)=O)CS[C@H]12)c1ccco1 [cefuroxim]
frequency of bacteraemia versus the untreated group (bacteraemia): lower frequency

C[C@@H]1CN(c2c(F)c(N)c3c(=O)c(C(=O)O)cn(C4CC4)c3c2F)C[C@H](C)N1 [sparfloxacin, 5-amino-1-cyclopropyl-7-[(3R,5S)-3,5-dimethyl-1-piperazinyl]-6,8-difluoro-1,4-dihydro-4-oxo-3-quinolinecarboxylic acid]
clinical finding at check-up ([3]; Patient A 1.16, gel 25 mg/ml, repetition of insert, check-up after 14 days): patient symptom-free, tooth vital
clinical finding at check-up ([3]; Patient A 1.16, tooth 46 reduced vitality, pellet insert gel 25 mg/ml, check-up after 4 days): still slight sensitivity to heat

C[C@H]1COc2c(N3CCN(C)CC3)c(F)cc3c(=O)c(C(=O)O)cn1c23 [levofloxacin, (3S)-9-fluoro-2,3-dihydro-3-methyl-10-(4-methyl-1-piperazinyl)-7-oxo-7H-pyrido[1,2,3-de]-1,4-benzoxazine-6-carboxylic acid]
clinical finding at check-up ([3]; Patient A 1.14, tooth 13, night pain, pellet inserts gel 50 mg/ml, check-up after 14 days): patient symptom-free, tooth vital

NC1CCN(c2nc3c(cc2F)c(=O)c(C(=O)O)cn3-c2ccc(F)cc2F)C1 (stereo not drawn) [tosufloxacin tosylate, 7-(3-amino-1-pyrrolidinyl)-1-(2,4-difluorophenyl)-6-fluoro-1,4-dihydro-4-oxo-1,8-naphthyridine-3-carboxylic acid]
clinical finding at check-up ([2]; Patient A 3.20, tooth 47 apical periodontitis, not gangrenous, root canal insert gel 100 mg/ml, check-up after 8 days): patient symptom-free
clinical finding at check-up ([2]; Patient A 3.22, tooth 35 apical periodontitis, not gangrenous, root canal insert gel 50 mg/ml, check-up after 10 days): patient symptom-free

O=C(N[C@H](CO)[C@H](O)c1ccc([N+](=O)[O-])cc1)C(Cl)Cl [chloramphenicol]
resistance of strains [1]: majority of Staphylococcus aureus strains were resistant

CO/N=C1\CN(c2nc3c(cc2F)c(=O)c(C(=O)O)cn3C2CC2)CC1CN (stereo not drawn) [gemifloxacin mesylate, 7-[(4Z)-3-(aminomethyl)-4-(methoxyimino)-1-pyrrolidinyl]-1-cyclopropyl-6-fluoro-1,4-dihydro-4-oxo-1,8-naphtyridine-3-carboxylic acid]
clinical finding at check-up ([3]; Patient A 1.13, gel 25 mg/ml, repetition of insert, check-up after 4 days): tooth vital, patient symptom-free
clinical finding at check-up ([3]; Patient A 1.13, tooth 14, pellet insert gel 25 mg/ml, check-up after 3 weeks): still slight discomfort
